Data on four compounds can be found in ChEMBL document CHEMBL1201862, “PubChem BioAssay data set” (2004).

Some test systems named below: RPMI-8226; HCC 2998; K562; MDA-MB-231; SF-539; ACHN; LOX IMVI; COLO 205; MDA-MB-435; NCI-H460; HCT-116; SF-295; OVCAR-5; MOLT-4; HCT-15; SW-620; M14; OVCAR-3; T47D; NCI-H226.
Holding throughout (assay): NCI anticancer screen, dose series, 48 h

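Method: 48-hour compound exposure of cells in 96-well plates, five concentrations, linear interpolation of endpoints. Here, GI50 denotes the concentration required for 50% inhibition of growth.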 Active and inactive are the calls of the source. Cut-off read from the data, not from the text of the source: active = GI50 up to about 1.1 µM and inactive = higher.

Consider `CCCCN(CCCC)CCC(O)c1cc(-c2ccc(C(F)(F)F)cc2)nc(-c2ccc(C(F)(F)F)cc2)c1` (stereo not given), for which the GI50 in the experiment on RPMI-8226, in the experiment with HCC 2998, with K562, with MDA-MB-231, with SF-539 and in the experiment on ACHN was > 100 µM (inactive) in each case. In addition, the GI50 in the experiment on LOX IMVI, in the experiment on COLO 205, with MDA-MB-435, in the experiment with NCI-H460, in the experiment with HCT-116 and with SF-295 was > 100 µM (inactive) in each case. Moreover, the GI50 in the experiment on OVCAR-5 is > 100 µM (inactive); in the experiment with MOLT-4, > 100 µM (inactive); with HCT-15, greater than 100 µM; in the experiment with SW-620 it was > 100 µM (inactive); in the experiment on M14, > 100 µM (inactive); with OVCAR-3 it was > 100 µM (inactive). In addition, the GI50 in the experiment on T47D is > 100 µM (inactive).
For the compound `O=c1oc2cccnc2n1CCN1CCN(c2ccc(Oc3ccccc3)cc2)CC1`, the GI50 is 8.47 µM (inactive) in the experiment with RPMI-8226; 52.8 µM (inactive) with HCC 2998; 12.4 µM (inactive) in the experiment on K562; > 100 µM (inactive) with MDA-MB-231; > 100 µM (inactive) in the experiment with SF-539; 35 µM (inactive) in the experiment with ACHN. Moreover, the GI50 in the experiment on LOX IMVI is > 100 µM (inactive); in the experiment with MDA-MB-435 it was 63.2 µM (inactive); in the experiment on NCI-H460, 77.8 µM (inactive); in the experiment with HCT-116, 33.6 µM (inactive); in the experiment with SF-295, 43 µM (inactive); with OVCAR-5, > 100 µM (inactive). Also, the GI50 with MOLT-4 is 19.7 µM (inactive); with HCT-15 it was 90.8 µM; in the experiment with SW-620, > 100 µM (inactive); with M14, 89.7 µM (inactive); with OVCAR-3, 25.5 µM (inactive); in the experiment on T47D it was 10.4 µM (inactive).
As for `CCc1ccccc1NC(=O)C(C#N)C1=C(Cl)C(=O)c2ccccc2C1=O` (stereo not given), the GI50 is 12.4 µM (inactive) in the experiment with RPMI-8226; 8.04 µM (inactive) with K562; 7.03 µM (inactive) with MDA-MB-231; 18.9 µM (inactive) in the experiment on SF-539; 15.2 µM (inactive) in the experiment with ACHN; 13.2 µM (inactive) in the experiment on LOX IMVI. Further, the GI50 in the experiment with COLO 205 was 15.7 µM (inactive); with MDA-MB-435, 25.6 µM (inactive); in the experiment on NCI-H226 it was 15.3 µM (inactive); in the experiment on NCI-H460, 19.7 µM (inactive); with HCT-116, 13 µM (inactive); in the experiment with SF-295 it was 20.9 µM (inactive). Also, the GI50 with OVCAR-5 is 18.6 µM (inactive); in the experiment with MOLT-4, 8.73 µM (inactive); in the experiment with HCT-15 it was 14.7 µM; in the experiment with SW-620, 18.4 µM (inactive); in the experiment with M14 it was 6.71 µM (inactive); in the experiment on OVCAR-3 it was 5.69 µM (inactive). The GI50 in the experiment with T47D is 19.5 µM (inactive).
Take `O=C1/C(=C/c2c(Cl)[nH]c3ccccc23)c2ccccc2N1c1ccccc1`: the GI50 with RPMI-8226 was 2.92 µM (inactive); in the experiment with HCC 2998, 8.97 µM (inactive); with K562, 4.1 µM (inactive); in the experiment with MDA-MB-231, 6.4 µM (inactive); in the experiment with SF-539, 3.7 µM (inactive); in the experiment on ACHN it was 7.01 µM (inactive). In addition, the GI50 is 3.66 µM (inactive) with LOX IMVI; 1.79 µM (inactive) in the experiment on COLO 205; 1.64 µM (inactive) in the experiment on MDA-MB-435; 3.59 µM (inactive) with NCI-H460; 4.6 µM (inactive) in the experiment on HCT-116; 2.44 µM (inactive) in the experiment on SF-295. Besides, the GI50 was 12.9 µM (inactive) in the experiment on OVCAR-5; 4.22 µM (inactive) in the experiment with MOLT-4; 3.14 µM in the experiment on HCT-15; 5.15 µM (inactive) with SW-620; 3.93 µM (inactive) with M14; 1.79 µM (inactive) in the experiment on OVCAR-3. The GI50 in the experiment with T47D is 3.37 µM (inactive).
